According to the NIST ThermoML archive (doi:10.1016/j.tca.2006.04.016):
± gives the expanded uncertainty stated by the source.

Experiment: xn = mol fraction of the nth substance listed
Conditions: 101 kPa, Liquid, Vibrating tube method

CN(C)CCCN [N,N-dimethyl-1,3-propanediamine] + O
mass density [kg/m3]
Conditions	318.15 K	323.15 K	328.15 K	333.15 K	338.15 K	343.15 K	348.15 K	353.15 K
x2 = 0	–	790.41 ± 0.15	785.91 ± 0.15	781.39 ± 0.16	776.85 ± 0.16	772.29 ± 0.16	767.7 ± 0.16	763.1 ± 0.17
x2 = 0.0403	–	793.5 ± 0.15	789 ± 0.15	784.47 ± 0.16	779.92 ± 0.16	775.35 ± 0.16	770.76 ± 0.16	766.14 ± 0.17
x2 = 0.0811	–	796.65 ± 0.15	792.14 ± 0.16	787.61 ± 0.16	783.06 ± 0.16	778.48 ± 0.16	773.88 ± 0.17	769.25 ± 0.17
x2 = 0.1198	–	799.82 ± 0.16	795.31 ± 0.16	790.78 ± 0.16	786.22 ± 0.16	781.64 ± 0.17	777.03 ± 0.17	772.39 ± 0.17
x2 = 0.16	–	803.3 ± 0.16	798.79 ± 0.16	794.25 ± 0.17	789.69 ± 0.17	785.1 ± 0.17	780.49 ± 0.17	775.84 ± 0.17
x2 = 0.1996	–	806.9 ± 0.17	802.39 ± 0.17	797.86 ± 0.17	793.3 ± 0.17	788.71 ± 0.18	784.09 ± 0.18	779.43 ± 0.18
x2 = 0.2498	–	811.82 ± 0.18	807.31 ± 0.18	802.78 ± 0.18	798.22 ± 0.18	793.62 ± 0.18	788.99 ± 0.19	784.32 ± 0.19
x2 = 0.2998	–	817.12 ± 0.19	812.62 ± 0.19	808.09 ± 0.19	803.53 ± 0.19	798.93 ± 0.2	794.3 ± 0.2	789.63 ± 0.2
x2 = 0.3499	–	822.81 ± 0.2	818.31 ± 0.21	813.78 ± 0.21	809.21 ± 0.21	804.61 ± 0.21	799.97 ± 0.21	795.29 ± 0.21
x2 = 0.3997	–	829.08 ± 0.22	824.59 ± 0.22	820.06 ± 0.22	815.49 ± 0.22	810.89 ± 0.23	806.24 ± 0.23	801.55 ± 0.23
x2 = 0.4501	–	836.03 ± 0.24	831.54 ± 0.24	827.01 ± 0.24	822.44 ± 0.24	817.83 ± 0.24	813.18 ± 0.24	808.48 ± 0.24
x2 = 0.4998	–	843.68 ± 0.26	839.19 ± 0.26	834.65 ± 0.26	830.08 ± 0.26	825.45 ± 0.26	820.79 ± 0.26	816.07 ± 0.26
x2 = 0.5501	–	852.33 ± 0.28	847.84 ± 0.28	843.3 ± 0.3	838.71 ± 0.28	834.08 ± 0.28	829.41 ± 0.28	824.69 ± 0.28
x2 = 0.5999	866.35 ± 0.3	861.89 ± 0.3	857.39 ± 0.3	852.84 ± 0.3	848.24 ± 0.3	843.6 ± 0.3	838.92 ± 0.3	834.17 ± 0.3
x2 = 0.6498	877.08 ± 0.32	872.61 ± 0.32	868.1 ± 0.32	863.55 ± 0.32	858.94 ± 0.32	854.29 ± 0.32	849.59 ± 0.32	844.83 ± 0.32
x2 = 0.7	889.3 ± 0.34	884.83 ± 0.34	880.31 ± 0.34	875.74 ± 0.34	871.13 ± 0.34	866.47 ± 0.34	861.76 ± 0.34	857 ± 0.34
x2 = 0.7499	902.82 ± 0.36	898.36 ± 0.36	893.85 ± 0.36	889.3 ± 0.4	884.69 ± 0.36	880.03 ± 0.36	875.32 ± 0.36	870.56 ± 0.36
x2 = 0.8	917.71 ± 0.39	913.29 ± 0.39	908.82 ± 0.38	904.3 ± 0.4	899.72 ± 0.38	895.11 ± 0.38	890.44 ± 0.38	885.71 ± 0.38
x2 = 0.84	930.55 ± 0.41	926.21 ± 0.41	921.82 ± 0.41	917.39 ± 0.4	912.9 ± 0.4	908.37 ± 0.4	903.78 ± 0.4	899.14 ± 0.4
x2 = 0.8799	943.86 ± 0.43	939.69 ± 0.43	935.48 ± 0.43	931.22 ± 0.42	926.91 ± 0.42	922.56 ± 0.42	918.14 ± 0.42	913.67 ± 0.42
x2 = 0.9	950.58 ± 0.44	946.58 ± 0.44	942.52 ± 0.44	938.42 ± 0.44	934.27 ± 0.43	930.05 ± 0.43	925.79 ± 0.43	921.45 ± 0.43
x2 = 0.92	957.27 ± 0.45	953.52 ± 0.45	949.71 ± 0.45	945.84 ± 0.45	941.89 ± 0.45	937.89 ± 0.44	933.81 ± 0.44	929.67 ± 0.44
x2 = 0.94	963.99 ± 0.46	960.6 ± 0.46	957.12 ± 0.46	953.56 ± 0.46	949.91 ± 0.46	946.17 ± 0.46	942.35 ± 0.46	938.45 ± 0.45
x2 = 0.9597	970.89 ± 0.47	967.94 ± 0.47	964.87 ± 0.47	961.68 ± 0.47	958.38 ± 0.47	954.98 ± 0.47	951.46 ± 0.47	947.86 ± 0.47
x2 = 0.975	976.98 ± 0.48	974.39 ± 0.48	971.65 ± 0.48	968.78 ± 0.48	965.78 ± 0.48	962.66 ± 0.48	959.41 ± 0.48	956.07 ± 0.48
x2 = 0.99	984.22 ± 0.49	981.91 ± 0.49	979.45 ± 0.49	976.83 ± 0.49	974.07 ± 0.49	971.18 ± 0.49	968.15 ± 0.49	965.01 ± 0.49
